{"source": "paper PMC12589586", "about": "“Targeting TAZ-TEAD in minimal residual disease enhances the duration of targeted therapy in melanoma models” (Nature Communications, 2025)", "key": {"TEAD1 [1]": {"target": "T1, TEAD1 (Homo sapiens, UniProt P28347)", "T1 sequence (P28347 whole entry)": "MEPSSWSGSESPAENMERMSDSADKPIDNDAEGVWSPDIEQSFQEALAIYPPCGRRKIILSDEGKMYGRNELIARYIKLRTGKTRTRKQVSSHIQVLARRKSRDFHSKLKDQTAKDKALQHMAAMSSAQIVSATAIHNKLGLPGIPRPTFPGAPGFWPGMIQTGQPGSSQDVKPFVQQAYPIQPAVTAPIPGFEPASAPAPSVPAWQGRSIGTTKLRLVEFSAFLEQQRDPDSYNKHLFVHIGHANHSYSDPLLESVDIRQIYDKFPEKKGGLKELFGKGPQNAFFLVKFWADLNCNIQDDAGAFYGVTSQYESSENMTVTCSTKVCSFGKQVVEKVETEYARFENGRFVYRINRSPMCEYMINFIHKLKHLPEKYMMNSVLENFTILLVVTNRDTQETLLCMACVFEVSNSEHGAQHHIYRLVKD", "experiment": "co-crystal structure ([…] Å); also protein thermal shift", "assay_type": "binding", "parameters": "FLAG-tagged hTEAD1, depalmitoylated (thermal shift)"}, "TEAD4": {"target": "T2, TEAD4 (Mus musculus, UniProt Q62296)", "T2 construct": "FLAG-tagged mTEAD4, depalmitoylated", "T2 sequence (Q62296 whole entry)": "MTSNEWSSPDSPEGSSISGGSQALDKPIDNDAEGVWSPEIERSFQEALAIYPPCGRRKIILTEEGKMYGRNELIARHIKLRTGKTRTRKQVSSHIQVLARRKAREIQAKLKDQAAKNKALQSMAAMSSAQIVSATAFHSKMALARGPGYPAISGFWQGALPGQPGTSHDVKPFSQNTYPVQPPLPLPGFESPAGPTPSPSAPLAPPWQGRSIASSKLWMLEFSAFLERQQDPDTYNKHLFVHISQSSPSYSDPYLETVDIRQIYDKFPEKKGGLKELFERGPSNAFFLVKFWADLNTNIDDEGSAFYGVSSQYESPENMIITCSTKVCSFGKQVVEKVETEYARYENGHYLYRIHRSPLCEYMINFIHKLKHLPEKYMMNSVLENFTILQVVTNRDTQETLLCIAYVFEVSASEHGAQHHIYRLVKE", "experiment": "protein thermal shift assay (delta Tm); no binding to palmitoylated TEAD4"}, "TEAD1 [2]": {"target": "T1, TEAD1", "experiment": "protein thermal shift assay (delta Tm)", "assay_type": "binding", "parameters": "FLAG-tagged hTEAD1, depalmitoylated"}}}
{"compound": "C=CC(=O)N1CCc2ccc(Oc3ccc(C(F)(F)F)c(F)c3)cc2C1", "note": "[OPN-9652, 1-(7-(3-fluoro-4-(trifluoromethyl)phenoxy)-3,4-dihydroisoquinolin-2(1H)-yl)prop-2-en-1-one]", "values": [{"measurement": "co-crystal structure (2.03 Å); also protein thermal shift", "setting": "TEAD1 [1]", "result": "OPN-9652 occupies the central palmitate-binding pocket and covalently modifies Cys359"}, {"measurement": "protein thermal shift assay (delta Tm); no binding to palmitoylated TEAD4", "setting": "TEAD4", "result": "Incubation of these compounds with depalmitoylated TEAD4 resulted in significant Tm shifts, indicating binding and stabilization of target proteins"}]}
{"compound": "C=CC(=O)N1CCc2ccc(Oc3ccc(C(F)(F)F)cc3)cc2C1", "note": "[OPN-9643, 1-(7-(4-(trifluoromethyl)phenoxy)-3,4-dihydroisoquinolin-2(1H)-yl)prop-2-en-1-one]", "values": [{"measurement": "protein thermal shift assay (delta Tm)", "setting": "TEAD1 [2]", "result": "protein thermal shift analysis and confirmed the binding of both compounds to depalmitoylated TEAD1 and TEAD4 proteins"}, {"measurement": "protein thermal shift assay (delta Tm); no binding to palmitoylated TEAD4", "setting": "TEAD4", "result": "Incubation of these compounds with depalmitoylated TEAD4 resulted in significant Tm shifts, indicating binding and stabilization of target proteins"}]}
